According to US4904819A, “Bicyclic sulfonamide derivatives and process therefor” (Shionogi & Co., Ltd., priority 1987, dated 1990):

Key:
washed platelet = assay: Inhibition of platelet aggregation caused by collagen (washed platelet, aggregometer); format: cell-based, male rat (Sprague-Dowley); settings: 0.05 h; platelet aggregating agent: collagen, 4 μg/ml final; rat washed platelet, 37° C.; measured 3 minutes after adding agent; read-out: Inhibition of Platelet Aggregation [50% Inhibitory Concentration]
Experimental: From the abdominal artery of a male rat (Sprague-Dowley, 8 weeks old) was collected 10 ml of blood with a syringe containing 1.5 ml of ACD (85 mM sodium citrate, 70 mM citric acid, 110 mM glucose) and 20 μg of prostaglandin E1. The blood is placed in a plastic test tube, mixed by moderate turning and centrifuged for 10 minutes at 160×g to give platelet rich plasma (PRP). To the prepared PRP was added apyrase (25 μg/ml) and the mixture was layered on 40% bovine serum albumin. The resulting mixture is centrifuged at 1200×g for 25 minutes. The platelet pellet suspended in a small amount of a buffer (137 mM NaCl, 2.7 mM KCl, 1.0 mM MgCl2, 3.8 mM NaH2 PO4, 3.8 mM Hepes, 5.6 mM glucose, 0.035% bovine serum albumin, pH 7.35) was applied on 10 ml of Sepharose 2B column and eluted with the buffer to prepare a washed platelet.
The platelet aggregation reaction was measured by an aggregometer (NKK HEMA TRACER 1 MODEL PAT-6A·6M, Niko bioscience). In a measuring cuvette was placed 245 μl of the washed platelet of which platelet number was adjusted to 5×10^5 /μl and set in the aggregometer. The washed platelet was stirred (1000 rpm) at 37° C. and 3.8 μl of 0.1M of CaCl2 was added thereto. One minutes after, 0.5 μl of a solution of test compound (dimethylsulfoxide solution) was added and 2 minutes after, 1 μl of Collagen reagent Horm® [HORMON-CHEMIE Munchen GMBH, final concentrate 4 μg/ml) as a platelet aggregating agent was added. The change in light transmittance caused by platelet aggregation was recorded against time elasped.
50% aggregation inhibitory rate was calculated from the aggregation inhibitory rate (which was measured 3 minutes after adding a platelet aggregating agent). The light transmittance for the washed platelet and the buffer were setted at 0% and 100%, respectively.

[1] = tested on: platelet; smooth muscle of bronchi, and of coronary, cerebral and pulmonary arteries; settings: "it is said that"; prior art; cited from earlier work

SMILES | IC50 (washed platelet) [nM] | concentration at which the strong action occurs [1]
CC1(C)[C@H]2C[C@H](C/C=C\CCCC(=O)O)[C@H](NS(=O)(=O)c3ccccc3)[C@@H]1C2 [Compound 7a-a] | 11 | –
Cc1ccc(S(=O)(=O)N[C@H]2[C@@H](C/C=C\CCCC(=O)O)C[C@H]3C[C@@H]2C3(C)C)cc1 [Compound 7a-b] | 115 | –
CC1(C)[C@H]2C[C@H](C/C=C\CCCC(=O)O)[C@@H](NS(=O)(=O)c3ccccc3)[C@@H]1C2 [Compound 7b-a] | 0.7 | –
Cc1ccc(S(=O)(=O)N[C@@H]2[C@@H](C/C=C\CCCC(=O)O)C[C@H]3C[C@@H]2C3(C)C)cc1 [Compound 7b-b] | 1.7 | –
CC1(C)[C@H]2C[C@H](C/C=C\CCCC(=O)O)[C@@H](NS(=O)(=O)c3ccc(Cl)cc3)[C@@H]1C2 [Compound 7b-d] | 5.3 | –
CC1(C)[C@H]2C[C@H](C/C=C\CCCC(=O)O)[C@@H](NS(=O)(=O)c3ccccc3Cl)[C@@H]1C2 [Compound 7b-e] | 6.4 | –
CC1(C)[C@H]2C[C@H](C/C=C\CCCC(=O)O)[C@@H](NS(=O)(=O)c3cccc(Cl)c3)[C@@H]1C2 [Compound 7b-f] | 1.3 | –
CCc1ccc(S(=O)(=O)N[C@@H]2[C@@H](C/C=C\CCCC(=O)O)C[C@H]3C[C@@H]2C3(C)C)cc1 [Compound 7b-g] | 9.9 | –
CC1(C)[C@H]2C[C@H](C/C=C\CCCC(=O)O)[C@@H](NS(=O)(=O)c3ccc([N+](=O)[O-])cc3)[C@@H]1C2 [Compound 7b-h] | 26 | –
COc1ccc(S(=O)(=O)N[C@@H]2[C@@H](C/C=C\CCCC(=O)O)C[C@H]3C[C@@H]2C3(C)C)cc1 [Compound 7b-i] | 3.4 | –
CC1(C)[C@H]2C[C@H](C/C=C\CCCC(=O)O)[C@@H](NS(=O)(=O)c3ccc(O)cc3)[C@@H]1C2 [Compound 7b-k] | 1.8 | –
CC1(C)[C@H]2C[C@H](C/C=C\CCCC(=O)O)[C@@H](NS(=O)(=O)c3ccc(-c4ccccc4)cc3)[C@@H]1C2 [Compound 7b-l] | 9.9 | –
CC1(C)[C@H]2C[C@H](C/C=C\CCCC(=O)O)[C@@H](NS(=O)(=O)c3ccc4ccccc4c3)[C@@H]1C2 [Compound 7b-m] | 4.3 | –
CC1(C)[C@H]2C[C@H](C/C=C\CCCC(=O)O)[C@@H](NS(C)(=O)=O)[C@@H]1C2 [Compound 7b-n] | 480 | –
CC1(C)[C@H]2C[C@H](C/C=C\CCCC(=O)O)[C@@H](NS(=O)(=O)Cc3ccccc3)[C@@H]1C2 [Compound 7b-o] | 240 | –
CC1(C)[C@H]2C[C@H](C/C=C\CCCC(=O)O)[C@@H](NS(=O)(=O)CCc3ccccc3)[C@@H]1C2 [Compound 7b-p] | 13 | –
CC1(C)[C@H]2C[C@H](C/C=C\CCCC(=O)O)[C@@H](NS(=O)(=O)CCCc3ccccc3)[C@@H]1C2 [Compound 7b-q] | 12 | –
CC1(C)[C@H]2C[C@@H](C/C=C\CCCC(=O)O)[C@@H](NS(=O)(=O)c3ccccc3)[C@@H]1C2 [Compound 7d-a] | 37 | –
CC1(C)[C@H]2C[C@H](C/C=C/CCCC(=O)O)[C@@H](NS(=O)(=O)c3ccccc3)[C@@H]1C2 [Compound 10b-a] | 1.4 | –
CC1(C)C2CC(NCC(O)Cc3ccccc3)C(C/C=C\CCCC(=O)O)C1C2 (stereo not drawn) [ONO-11120, reference compound] | 115 | –
CCCCC[C@H](O)/C=C/[C@H]1O[C@H]2C[C@H](O2)[C@@H]1C/C=C\CCCC(=O)O [thromboxane A2] | – | 10^-10 to 10^-11 M
